# Measurements from the supplement of paper PMC10307832.
# Legend:
# Experiment in all cases: relative viability (nuclei count vs DMSO), 5 days (fraction); higher = more cells survive
# NCI-H596 = test system: NCI-H596
# Summary of the method: (§1)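 Medians of duplicate plates are given as relative viability. That measure is the nuclei count in treated wells divided by the count in vehicle wells. Counts were taken on 4× images of lung cancer cell lines in 1536-well plates, 5 days after pin-tool dosing the day after seeding with one drug alone or a fixed anchor-drug dose plus five library-drug doses (not always all listed) in √10 steps.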
# BEN = test system: BEN
# Summary of the method: as §1
# NCI-H1944 = test system: NCI-H1944
# Summary of the method: as §1
# 201T = test system: 201T
# Summary of the method: as §1
# NCI-H1792 = test system: NCI-H1792
# Summary of the method: as §1
# NCI-H1650 = test system: NCI-H1650
# Summary of the method: as §1
# NCI-H520 = test system: NCI-H520
# Summary of the method: as §1
# NCI-H460 = test system: NCI-H460
# Summary of the method: as §1
# NCI-H2087 = test system: NCI-H2087
# Summary of the method: as §1
# NCI-H650 = test system: NCI-H650
# Summary of the method: as §1
# NCI-H2023 = test system: NCI-H2023
# Summary of the method: as §1
# NCI-H727 = test system: NCI-H727
# Summary of the method: as §1
# H3255 = test system: H3255
# Summary of the method: as §1
# LC-2-ad = test system: LC-2-ad
# Summary of the method: as §1
# NCI-H441 = test system: NCI-H441
# Summary of the method: as §1
# NCI-H1651 = test system: NCI-H1651
# Summary of the method: as §1
# LCLC-97TM1 = test system: LCLC-97TM1
# Summary of the method: as §1
# CAL-12T = test system: CAL-12T
# Summary of the method: as §1
# PC-3 [JPC-3] = test system: PC-3 [JPC-3]
# Summary of the method: as §1
# NCI-H661 = test system: NCI-H661
# Summary of the method: as §1
# NCI-H1915 = test system: NCI-H1915
# Summary of the method: as §1
# A-427 = test system: A-427
# Summary of the method: as §1
compound,measurement,setting,value
NC(=O)Nc1cc(-c2cccc(F)c2)sc1C(=O)N[C@H]1CCCNC1 [AZD7762] + CC(=O)Nc1cccc(-n2c(=O)n(C3CC3)c(=O)c3c(Nc4ccc(I)cc4F)n(C)c(=O)c(C)c32)c1 [Trametinib] (partner 0.02 µM),relative viability,NCI-H596; first compound 0.01 µM,0.931
same,relative viability,NCI-H596; first compound 0.03162 µM,0.8
same,relative viability,NCI-H596; first compound 0.1 µM,0.923
same,relative viability,NCI-H596; first compound 0.3162 µM,0.803
same,relative viability,NCI-H596; first compound 1 µM,0.626
same,relative viability,BEN; first compound 0.01 µM,1.15
same,relative viability,BEN; first compound 0.03162 µM,1.11
same,relative viability,BEN; first compound 0.1 µM,1.09
same,relative viability,BEN; first compound 0.3162 µM,1.09
same,relative viability,BEN; first compound 1 µM,0.968
same,relative viability,NCI-H1944; first compound 0.01 µM,0.443
same,relative viability,NCI-H1944; first compound 0.03162 µM,0.493
same,relative viability,NCI-H1944; first compound 0.1 µM,0.473
same,relative viability,NCI-H1944; first compound 0.3162 µM,0.523
same,relative viability,NCI-H1944; first compound 1 µM,0.496
same,relative viability,201T; first compound 0.01 µM,0.718
same,relative viability,201T; first compound 0.03162 µM,0.749
same,relative viability,201T; first compound 0.1 µM,0.763
same,relative viability,201T; first compound 0.3162 µM,0.724
same,relative viability,201T; first compound 1 µM,0.852
same,relative viability,NCI-H1792; first compound 0.01 µM,0.406
same,relative viability,NCI-H1792; first compound 0.03162 µM,0.355
same,relative viability,NCI-H1792; first compound 0.1 µM,0.589
same,relative viability,NCI-H1792; first compound 0.3162 µM,0.411
same,relative viability,NCI-H1792; first compound 1 µM,0.527
same,relative viability,NCI-H1650; first compound 0.01 µM,0.65
same,relative viability,NCI-H1650; first compound 0.03162 µM,0.659
same,relative viability,NCI-H1650; first compound 0.1 µM,0.631
same,relative viability,NCI-H1650; first compound 0.3162 µM,0.532
same,relative viability,NCI-H1650; first compound 1 µM,0.209
same,relative viability,NCI-H520; first compound 0.01 µM,0.713
same,relative viability,NCI-H520; first compound 0.03162 µM,0.702
same,relative viability,NCI-H520; first compound 0.1 µM,0.653
same,relative viability,NCI-H520; first compound 0.3162 µM,0.484
same,relative viability,NCI-H520; first compound 1 µM,0.194
same,relative viability,NCI-H460; first compound 0.01 µM,0.327
same,relative viability,NCI-H460; first compound 0.03162 µM,0.179
same,relative viability,NCI-H460; first compound 0.1 µM,0.226
same,relative viability,NCI-H460; first compound 0.3162 µM,0.171
same,relative viability,NCI-H460; first compound 1 µM,0.0341
same,relative viability,NCI-H2087; first compound 0.01 µM,0.211
same,relative viability,NCI-H2087; first compound 0.03162 µM,0.212
same,relative viability,NCI-H2087; first compound 0.1 µM,0.248
same,relative viability,NCI-H2087; first compound 0.3162 µM,0.333
same,relative viability,NCI-H2087; first compound 1 µM,0.254
same,relative viability,NCI-H650; first compound 0.01 µM,0.984
same,relative viability,NCI-H650; first compound 0.03162 µM,1.08
same,relative viability,NCI-H650; first compound 0.1 µM,1.05
same,relative viability,NCI-H650; first compound 0.3162 µM,1.04
same,relative viability,NCI-H650; first compound 1 µM,0.756
same,relative viability,NCI-H2023; first compound 0.01 µM,0.596
same,relative viability,NCI-H2023; first compound 0.03162 µM,0.46
same,relative viability,NCI-H2023; first compound 0.1 µM,0.293
same,relative viability,NCI-H2023; first compound 0.3162 µM,0.156
same,relative viability,NCI-H2023; first compound 1 µM,0.132
same,relative viability,NCI-H727; first compound 0.01 µM,0.361
same,relative viability,NCI-H727; first compound 0.03162 µM,0.429
same,relative viability,NCI-H727; first compound 0.1 µM,0.358
same,relative viability,NCI-H727; first compound 0.3162 µM,0.366
same,relative viability,NCI-H727; first compound 1 µM,0.299
same,relative viability,H3255; first compound 0.01 µM,0.71
same,relative viability,H3255; first compound 0.03162 µM,0.72
same,relative viability,H3255; first compound 0.1 µM,0.698
same,relative viability,H3255; first compound 0.3162 µM,0.618
same,relative viability,H3255; first compound 1 µM,0.682
same,relative viability,LC-2-ad; first compound 0.01 µM,0.914
same,relative viability,LC-2-ad; first compound 0.03162 µM,0.9
same,relative viability,LC-2-ad; first compound 0.1 µM,0.906
same,relative viability,LC-2-ad; first compound 0.3162 µM,0.647
same,relative viability,LC-2-ad; first compound 1 µM,0.544
same,relative viability,NCI-H441; first compound 0.01 µM,0.511
same,relative viability,NCI-H441; first compound 0.03162 µM,0.574
same,relative viability,NCI-H441; first compound 0.1 µM,0.543
same,relative viability,NCI-H441; first compound 0.3162 µM,0.517
same,relative viability,NCI-H441; first compound 1 µM,0.359
same,relative viability,NCI-H1651; first compound 0.01 µM,0.882
same,relative viability,NCI-H1651; first compound 0.03162 µM,0.852
same,relative viability,NCI-H1651; first compound 0.1 µM,0.871
same,relative viability,NCI-H1651; first compound 0.3162 µM,0.873
same,relative viability,NCI-H1651; first compound 1 µM,0.766
same,relative viability,LCLC-97TM1; first compound 0.01 µM,0.199
same,relative viability,LCLC-97TM1; first compound 0.03162 µM,0.214
same,relative viability,LCLC-97TM1; first compound 0.1 µM,0.185
same,relative viability,LCLC-97TM1; first compound 0.3162 µM,0.202
same,relative viability,LCLC-97TM1; first compound 1 µM,0.182
same,relative viability,CAL-12T; first compound 0.01 µM,0.391
same,relative viability,CAL-12T; first compound 0.03162 µM,0.402
same,relative viability,CAL-12T; first compound 0.1 µM,0.377
same,relative viability,CAL-12T; first compound 0.3162 µM,0.325
same,relative viability,CAL-12T; first compound 1 µM,0.217
same,relative viability,PC-3 [JPC-3]; first compound 0.01 µM,0.699
same,relative viability,PC-3 [JPC-3]; first compound 0.03162 µM,0.722
same,relative viability,PC-3 [JPC-3]; first compound 0.1 µM,0.69
same,relative viability,PC-3 [JPC-3]; first compound 0.3162 µM,0.662
same,relative viability,PC-3 [JPC-3]; first compound 1 µM,0.515
same,relative viability,NCI-H661; first compound 0.01 µM,0.662
same,relative viability,NCI-H661; first compound 0.03162 µM,0.569
same,relative viability,NCI-H661; first compound 0.1 µM,0.577
same,relative viability,NCI-H661; first compound 0.3162 µM,0.599
same,relative viability,NCI-H661; first compound 1 µM,0.369
same,relative viability,NCI-H1915; first compound 0.01 µM,0.342
same,relative viability,NCI-H1915; first compound 0.03162 µM,0.332
same,relative viability,NCI-H1915; first compound 0.1 µM,0.305
same,relative viability,NCI-H1915; first compound 0.3162 µM,0.362
same,relative viability,NCI-H1915; first compound 1 µM,0.271
same,relative viability,A-427; first compound 0.01 µM,0.82
same,relative viability,A-427; first compound 0.03162 µM,0.849
same,relative viability,A-427; first compound 0.1 µM,0.772
same,relative viability,A-427; first compound 0.3162 µM,0.655
same,relative viability,A-427; first compound 1 µM,0.331
